From patent US6355269B1, “Oral compositions of levosimendan” (Orion Corporation, priority 1997, dated 2002)

Legend:
troponin = details: racemic mixture; cited from earlier work
[1] = Pharmacokinetic study of levosimendan capsules, single oral dose, in healthy volunteers; type: in vivo, human; details: from oral compositions comprising substantially pure crystalline polymorphic form I
Procedure: Pharmacokinetic parameters of two different polymorphs, (I) and (II), of levosimendan in healthy volunteers after a single oral dose of 2 mg of levosimendan capsule was studied. The formulations of hard gelatin capsules (size 3) A and B were the following:
The small value of Tmax indicates rapid absorption of the drug into plasma.

intestinal bacteria = details: oral administration; by intestinal bacteria; cited from earlier work

SMILES	calcium dependent binding to troponin (troponin)	dissolution and absorption into plasma [1]	metabolization in the lower gastrointestinal tract (intestinal bacteria)
CC1CC(=O)NN=C1c1ccc(NN=C(C#N)C#N)cc1 (racemic) [compound (I), [[4-(1,4,5,6-tetrahydro-4-methyl-6-oxo-3-pyridazinyl)phenyl]hydrazono]propanedinitrile]	significant calcium dependent binding to troponin		
CC1CC(=O)NN=C1c1ccc(NN=C(C#N)C#N)cc1 (single isomer, unassigned; (-)) [levosimendan, (−)-[[4-(1,4,5,6-tetrahydro-4-methyl-6-oxo-3-pyridazinyl)phenyl]hydrazono]propanedinitrile]		rapidly dissolved and absorbed into plasma	susceptible to metabolization in the lower gastrointestinal tract by intestinal bacteria
